Experimental data as given in patent US9389235B2, “Methods of using biomarkers for predicting the outcome of an immunotherapy against cancer” (priority 2010, dated 2016).
Like-named read-outs stand apart in the source and are kept apart here.

Test system: metastatic RCC patients
Assay type: in vivo, human
Conditions: for HR, overall survival, +CY vs −CY arm / HR (95% CI), overall survival, +CY vs −CY arm: IMA901-treated patients
Experimental: The IMA901-202 (phase II) study used univariate and multivariate analyses to identify parameters which alone or in combination serve as predictive biomarkers for the success in terms of immune response induction and prolongation of overall survival of IMA901 treatment of metastatic RCC patients.
To achieve this, around 450 parameters (patient- or tumor-related parameters as well as analytes measured in serum or urine and cellular parameters) were analyzed using pre-treatment samples of the IMA901-202 (phase II) study population. For multivariate analyses, which selected a set of several parameters, those parameters that required preparation of peripheral blood mononuclear cells (PBMCs) were not included in order to limit measurement costs in future trials. Parameters were analyzed for their association with overall survival and T-cell responses.
Thereby, the selection of purely prognostic markers, which by definition would show association with overall survival in both arms, was avoided.
All samples were collected before any therapeutic study intervention, either three days before vaccination and immediately before administration of cyclophosphamide in the +CY arm, or immediately before vaccination. Serum samples were taken using a serum/gel-[…] (Becton Dickinson, 5 ml), inverted and incubated for a minimum of 30 minutes. Tubes were centrifuged for 15 minutes at least 1200×g, and serum (approximately 2 ml) was transferred into a NUNC cryotube (3.6 ml). Cryotubes were stored immediately at <−20° C. until measurement. […] Urine was collected shortly before vaccination. For dipstick examination, only fresh urine was used. Citrated plasma for analysis of coagulation was collected approximately two weeks before vaccination. Samples were taken using a citrate-[…] and centrifuged within 30 minutes at least 1200×g at ambient temperature. Supernatant plasma was transferred into microtubes.
Biomarker measurement methods included ELISA, multiplex immunoassays, epigenetic assays, mass spectrometry, FACS analyses, routine clinical methods of haematology, clinical chemistry and urine analysis, and other methods.
The interaction of parameters with CY-pre-treatment was assessed using the Cox proportional hazards model. Candidates showing an interaction p value of <0.05 at any cutoff value that was not at the extreme ends of the distribution (i.e. selecting or de-selecting >˜5% of patients) were considered as interesting.
Moreover, to exclude parameters with significant interaction due to inverse association of cyclophosphamide pre-treatment with overall survival in the unfavorable biomarker group, an additional criterion was significant association (p<0.05) with overall survival in the positive biomarker group. A significant (p<0.05) association with overall survival in the +CY group, but not in the −CY group was considered to be an additional hint for the predictive instead of prognostic quality of a parameter.
Multivariate biomarkers were determined according to a Cox proportional hazard model, whose properties and extensions are described in the following.

SMILES: O=P1(N(CCCl)CCCl)NCCCO1 (stereo not shown) [cyclophosphamide]
- patients still alive at the end of the study (CCL17/TARC-positive cyclophosphamide-pre-treated patients, IMA901 treatment (FIG. 1D)): 75%
- HR, interaction of biomarker with cyclophosphamide pre-treatment (overall survival) (biomarker ApoA1, cutoff 0.264 mg/ml): 0.43
- HR, interaction of biomarker with cyclophosphamide pre-treatment (overall survival) (biomarker CCL17/TARC, cutoff 161.99 pg/ml): 0.26
- HR, interaction of biomarker with cyclophosphamide pre-treatment (overall survival) (biomarker CXCL13/BCA-1, cutoff 64.21 pg/ml): 0.3271
- HR, interaction of biomarker with cyclophosphamide pre-treatment (overall survival) (biomarker monocytes, cutoff 7.7%): 0.22
- HR, overall survival, +CY vs −CY arm (biomarker-negative group, ApoA1, cutoff 0.264 mg/ml): 0.84
- HR, overall survival, +CY vs −CY arm (biomarker-negative group, CCL17/TARC, cutoff 161.99 pg/ml): 0.85
- HR, overall survival, +CY vs −CY arm (biomarker-negative group, CXCL13/BCA-1, cutoff 64.21 pg/ml): 1.07
- HR, overall survival, +CY vs −CY arm (biomarker-negative group, monocytes, cutoff 7.7%): 1.31
- HR (95% CI), overall survival, +CY vs −CY arm (biomarker-negative group, multivariate biomarker, cutoff 0.019076043 points): 2.5 (0.95-6.58);
- HR, overall survival, +CY vs −CY arm (biomarker-positive group, ApoA1, cutoff 0.264 mg/ml): 0.36
- HR, overall survival, +CY vs −CY arm (biomarker-positive group, CCL17/TARC, cutoff 161.99 pg/ml): 0.22
- HR, overall survival, +CY vs −CY arm (biomarker-positive group, CXCL13/BCA-1, cutoff 64.21 pg/ml): 0.35
- HR, overall survival, +CY vs −CY arm (biomarker-positive group, monocytes, cutoff 7.7%): 0.29
- HR (95% CI), overall survival, +CY vs −CY arm (biomarker-positive group, multivariate biomarker, cutoff 0.019076043 points): 0.08 (0.02-0.38);
- HR (95% CI), interaction of multivariate biomarker with cyclophosphamide pre-treatment (overall survival) (multivariate biomarker, cutoff 0.019076043 points): 0.032 (0.0055-0.1863);
